Among the data in ChEMBL document CHEMBL5233242, “Dihydrofolate reductase inhibitors for use as antimicrobial agents” (Eur J Med Chem, 2020) are MIC values, retold here.

The structures appear in SMILES notation. In brackets after ≈: the same amount, converted by molar mass. Where only a bound is given, the exact number is not on record here.

Assay [1] concerns Mycobacterium tuberculosis. Nature of the assay: Antibacterial activity against multi drug-resistant Mycobacterium tuberculosis 365. Type of assay: functional.
Assay [2] relates to Mycobacterium tuberculosis. Description: Antibacterial activity against extensively drug-resistant Mycobacterium tuberculosis 5. Type of assay: functional.

What is called MIC is the least concentration at which growth counts as inhibited. A high value points to a need for much substance. Take `CCc1nc(N)nc(N)c1C#C[C@H](C)c1cc(OC)cc(-c2ccc(C(=O)O)cc2)c1`: the values for the MIC in assay [1] and in assay [2] were < 0.072 µM and 0.6 µM (≈ 0.25 µg/mL), respectively.
Take `CCc1nc(N)nc(N)c1C#CCc1cc(OC)cc(-c2ccc(C(=O)O)cc2)c1`: the MIC came out at 0.311 µM (≈ 0.125 µg/mL) in assay [1] and 4.97 µM (≈ 2 µg/mL) in assay [2].
